Test results: patent publication US6391901B1, “Thrombin inhibitors” (Eli Lilly and Company, priority 1997, dated 2002)
Where a name gives a salt, the structure may show the parent alone.

Row | melting point | Compound
1 | 150 °C (dec.) | COc1cc(Cc2c(-c3ccc(NS(=O)(=O)c4ccccc4)cc3)sc3cc(O)ccc23)ccc1CN1CCCC1 (as salt: oxalate) [Example 31, 6-Hydroxy-3-[3-methoxy-4-(1-pyrrolidinylmethyl)benzyl]-2-[4-(phenylsulfonylamino)phenyl]benzo[b]thiophene Oxalate]
2 | 180 °C (dec.) | COc1cc(C(=O)c2c(-c3ccc(NS(=O)(=O)c4ccccc4)cc3)sc3cc(O)ccc23)ccc1CN1CCCC1 (as salt: oxalate) [Example 32, 6-Hydroxy-2-[4-(phenylsulfonylamino)phenyl)benzo[b]thiophen-3-yl 3-Methoxy-4-(1-pyrrolidinylmethyl)phenyl Ketone Oxalate]
